# Patent US20200148635A1 (priority 2017, published 2020)
# Assays:
# Septoria lycopersici = test: In vitro test Septoria lycopersici (leaf spot of tomato), radial growth on Potato Dextrose Agar; type: cell-based; settings: 168 h, agar plate, 25° C., seven days, read-out: control compared to the untreated check
# Description: Septoria lycopersici (Leaf Spot of Tomato):
# Compounds were dissolved in 0.3% DMSO and then added to Potato Dextrose Agar medium just prior to dispensing it into Petri dishes. 5 mL medium with compound in the desired concentration was dispensed into 60 mm sterile Petri-plates. After solidification each plate was seeded with 5 mm size mycelial disc taken form periphery of actively growing virulent culture plate. Plates were incubated in growth chambers at 25° C. temperature and 70% relative humidity for seven days and radial growth was measured.
# Alternaria solani = test: In vitro test Alternaria solani (early blight of tomato/potato), radial growth on Potato Dextrose Agar; type: cell-based; settings: 168 h, agar plate, 25° C., seven days, read-out: control compared to the untreated check
# Description: Alternaria solani (early blight of tomato/potato): Compounds were dissolved in 0.3% DMSO and then added to Potato Dextrose Agar medium just prior to dispensing it into Petri dishes. 5 mL medium with compound in the desired concentration was dispensed into 60 mm sterile Petri-plates. After solidification each plate was seeded with 5 mm size mycelial disc taken form periphery of actively growing virulent culture plate. Plates were incubated in growth chambers at 25° C. temperature and 60% relative humidity for seven days and radial growth was measured.
# Rhizoctonia solani = test: In vitro test Rhizoctonia solani (rice sheath blight/potato black scurf), radial growth on Potato Dextrose Agar; type: cell-based; settings: 168 h, agar plate, 25° C., seven days, read-out: control compared to the untreated check
# Description: Rhizoctonia solani (Rice Sheath Blight/Potato Black Scurf):
# Compounds were dissolved in 0.3% DMSO and then added to Potato Dextrose Agar medium just prior to dispensing it into Petri dishes. 5 mL medium with compound in the desired concentration was dispensed into 60 mm sterile Petri-plates. After solidification each plate was seeded with 5 mm size mycelial disc taken form periphery of actively growing virulent culture plate. Plates were incubated in growth chambers at 25° C. temperature and 60% relative humidity for seven days and radial growth was measured.
# Pyricularia oryzae = test: microbe, parasite or virus in culture; type: cell-based; settings: 168 h, read-out: control compared to the untreated check
# Phakopsora pachyrhizi = test: Greenhouse Phakopsora pachyrhizi test in soybean, preventive; type: in vivo; settings: preventive spray on soybean plants, inoculated one day after treatment with Phakopsora pachyrhizi, read-out: control compared to the untreated check
# Description: Phakopsora pachyrhizi Test in Soybean
# Compounds were dissolved in 2% DMSO/Acetone and then mixed with water to the calibrated spray volume of 50 mL and poured into the spray bottles for further applications.
# To test the preventive activity of compounds, healthy young soybean plants raised in the greenhouse were sprayed with active compound preparation at the stated application rates inside the spray cabinets using hallowcone nozzles. One day after treatment, the plants were inoculated with spore suspension containing 2.1×10^6 Phakopsora pachyrhizi inoculum. The inoculated plants were then kept in greenhouse chamber at 25° C. temperature and 90% relative humidity for disease expression.
# A visual assessment of compound's performance was carried out by rating the disease severity (0-100% scale) on treated plants on 3, 7, 10 and 15 days after application. Efficacy (% control) of the compounds was calculated by comparing the disease rating in the treatment with the one of the untreated control. The sprayed plants were also assessed for compound's plant compatibility by recording symptoms like necrosis, chlorosis and stunting.
Structure (SMILES),inhibition of growth at 300 ppm (Alternaria solani) [%],inhibition of growth at 300 ppm (Pyricularia oryzae) [%],further results
CCN(C)C=Nc1cc(C)c(S(C)(=O)=Nc2ccccc2)cc1Cl (stereo not shown) [Compound 17],> 70,,inhibition of growth at 300 ppm (Septoria lycopersici): > 70%; inhibition of growth at 300 ppm (Rhizoctonia solani): > 70%
CCN(C)C=Nc1cc(C)c(Oc2cccc(S(C)(=O)=NCC3CC3)c2)cc1Cl (stereo not shown) [Compound 18],,> 70,
CCN=S(=O)(CC1CC1)c1cccc(Oc2cc(Cl)c(N=CN(C)CC)cc2C)c1 (stereo not shown) [Compound 20],,,inhibition of growth at 300 ppm (Septoria lycopersici): > 70%
CCN(C)C=Nc1cc(C)c(S(C)(=O)=Nc2cccc(OC)c2)cc1Cl (stereo not shown) [Compound 24],,> 70,
CCN(C)C=Nc1cc(C)c(S(C)(=O)=NC(=O)c2ccccc2)cc1Cl (stereo not shown) [Compound 28],,> 70,
CCN(C)C=Nc1cc(C)c(S(C)(=O)=NC(=O)c2ccc(F)c(Cl)c2)cc1Cl (stereo not shown) [Compound 29],,> 70,
CCN(C)C=Nc1cc(C)c(S(C)(=O)=NC(=O)c2cccc(C(F)(F)F)c2)cc1Cl (stereo not shown) [Compound 30],,> 70,
CCN(C)C=Nc1cc(C)c(S(C)(=O)=NC(=O)c2cc(C(F)(F)F)cc(C(F)(F)F)c2)cc1Cl (stereo not shown) [Compound 31],,> 70,pest or weed control at 500 ppm (Phakopsora pachyrhizi): > 70%
CCN(C)C=Nc1cc(C)c(S(C)(=O)=NC(=O)c2ccc(F)c(F)c2)cc1Cl (stereo not shown) [Compound 34],,> 70,pest or weed control at 500 ppm (Phakopsora pachyrhizi): > 70%
CCN(C)C=Nc1cc(C)c(S(C)(=O)=Nc2cccc(C(F)(F)F)c2)cc1Cl (stereo not shown) [Compound 36],,> 70,
CCN(C)C=Nc1cc(C)c(S(C)(=O)=NC(=O)c2cccc(Cl)c2)cc1Cl (stereo not shown) [Compound 40],,> 70,
CCN(C)C=Nc1cc(C)c(S(C)(=O)=Nc2ccc(Cl)c(C(F)(F)F)c2)cc1Cl (stereo not shown) [Compound 41],,> 70,
CCN(C)C=Nc1cc(C)c(S(C)(=O)=Nc2cccc(S(F)(F)(F)(F)F)c2)cc1Cl (stereo not shown) [Compound 45],> 70,,inhibition of growth at 300 ppm (Septoria lycopersici): > 70%
CCN(C)C=Nc1cc(Br)c(N=S(C)(=O)c2ccccc2)nc1C (stereo not shown) [Compound 47],,> 70,pest or weed control at 500 ppm (Phakopsora pachyrhizi): > 70%
CCN(C)C=Nc1cc(C)c(S(=O)(CC)=NC(=O)c2cccc(C(F)(F)F)c2)cc1Cl (stereo not shown) [Compound 51],> 70,> 70,
CCN(C)C=Nc1cc(C)c(S(=O)(CC)=NC(=O)c2cccc(F)c2)cc1Cl (stereo not shown) [Compound 52],> 70,,
CCN(C)C=Nc1cc(C)c(S(=O)(CC)=NC(=O)c2cccc(OC(F)(F)F)c2)cc1Cl (stereo not shown) [Compound 53],> 70,> 70,
CCN=S(C)(=O)c1cccc(Oc2cc(C)c(N=CN(C)CC)cc2C)c1 (stereo not shown) [Compound 54],,> 70,
CCN(C)C=Nc1cc(C)c(N=S(=O)(CCC(C)C)c2ccccc2)cc1C (stereo not shown) [Compound 55],,> 70,
CCN(C)C=Nc1cc(Br)c(N=S(C)(=O)c2ccc(Br)cc2)nc1C (stereo not shown) [Compound 56],,> 70,
CCN(C)C=Nc1cc(Br)c(N=S(=O)(CCC(C)C)c2ccccc2)nc1C (stereo not shown) [Compound 57],,> 70,
CCN(C)C=Nc1cc(C)c(S(=O)(CC)=NC(=O)c2ccccc2)cc1Cl (stereo not shown) [Compound 58],,> 70,
CCN(C)C=Nc1cc(C)c(S(=O)(CC)=NC(=O)c2nn(C)cc2C(F)F)cc1Cl (stereo not shown) [Compound 59],,> 70,
CCN(C)C=Nc1cc(C)c(S(=O)(CC)=Nc2cccc(C(F)(F)F)c2)cc1Cl (stereo not shown) [Compound 60],,> 70,pest or weed control at 500 ppm (Phakopsora pachyrhizi): > 70%
CCN(C)C=Nc1cc(C)c(S(=O)(CC)=Nc2cccc(OC(F)(F)F)c2)cc1Cl (stereo not shown) [Compound 61],> 70,,inhibition of growth at 300 ppm (Septoria lycopersici): > 70%; pest or weed control at 500 ppm (Phakopsora pachyrhizi): > 70%

Structure (SMILES),inhibition of growth at 300 ppm (Alternaria solani) [%],inhibition of growth at 300 ppm (Pyricularia oryzae) [%],further results
CCN(C)C=Nc1cc(C)c(S(=O)(CC)=Nc2cc(F)c(F)c(F)c2)cc1Cl (stereo not shown) [Compound 62],> 70,> 70,
CCN(C)C=Nc1cc(C)c(S(=O)(CC)=Nc2ccccc2)cc1Cl (stereo not shown) [Compound 64],> 70,,
CCN(C)C=Nc1cc(C)c(N=S(=O)(c2ccccc2)C(C)C)cc1C (stereo not shown) [Compound 66],> 70,,inhibition of growth at 300 ppm (Rhizoctonia solani): > 70%
CCN(C)C=Nc1cc(Br)c(Oc2cccc(S(C)(=O)=NCC3CCC3)c2)nc1C (stereo not shown) [Compound 69],,> 70,
CCN(C)C=Nc1cc(C)c(Oc2cccc(S(C)(=O)=NCC3CCC3)c2)cc1C (stereo not shown) [Compound 71],,> 70,
CCN(C)C=Nc1cc(C)c(S(=O)(CC(C)C)=NC(=O)c2ccc(F)c(Cl)c2)cc1Cl (stereo not shown) [Compound 72],,> 70,
CCN(C)C=Nc1cc(C)c(N=S(=O)(c2cccc(OC)c2)C(C)C)cc1C (stereo not shown) [Compound 75],,> 70,pest or weed control at 500 ppm (Phakopsora pachyrhizi): > 70%
CCN(C)C=Nc1cc(Br)c(N=S(=O)(c2cccc(OC)c2)C(C)C)nc1C (stereo not shown) [Compound 78],> 70,,
CCN(C)C=Nc1cc(C)c(S(=O)(CC(C)C)=NCc2ccc(F)c(Cl)c2)cc1Cl (stereo not shown) [Compound 100],,> 70,
CCN(C)C=Nc1cc(C)c(S(=O)(CC(C)C)=NCc2cccc(Cl)c2)cc1Cl (stereo not shown) [Compound 101],> 70,,pest or weed control at 500 ppm (Phakopsora pachyrhizi): > 70%
CCN(C)C=Nc1cc(C)c(S(=O)(CC(C)C)=NCc2cccc(C(F)(F)F)c2)cc1Cl (stereo not shown) [Compound 102],> 70,> 70,
CCN(C)C=Nc1cc(Br)c(N=S(=O)(CC2CC2)c2cccc(F)c2)nc1C (stereo not shown) [Compound 106],,> 70,pest or weed control at 500 ppm (Phakopsora pachyrhizi): > 70%
CCN(C)C=Nc1cc(C)c(S(=O)(CC(C)C)=Nc2ccc(N(C)C)cc2)cc1Cl (stereo not shown) [Compound 110],,> 70,
CCN(C)C=Nc1cc(C)c(S(=O)(CC(C)C)=Nc2ccc(OC)cc2)cc1Cl (stereo not shown) [Compound 111],,> 70,
CCN(C)C=Nc1cc(C)c(Oc2cccc(S(C)(=O)=NCC#N)c2)cc1C (stereo not shown) [Compound 125],> 70,> 70,
CCN(C)C=Nc1cc(C)c(Oc2ccc(S(C)(=O)=NC#N)cc2)cc1Cl (stereo not shown) [Compound 129],,,pest or weed control at 500 ppm (Phakopsora pachyrhizi): > 70%
CCN=S(C)(=O)c1ccc(Cc2cc(C)c(N=CN(C)CC)cc2C)cc1 (stereo not shown) [Compound 130],> 70,,
CCN(C)C=Nc1cc(C)c(Cc2ccc(S(C)(=O)=NCC3CC3)cc2)cc1C (stereo not shown) [Compound 131],> 70,,
CCN(C)C=Nc1cc(C)c(Cc2ccccc2S(C)(=N)=O)cc1C (stereo not shown) [Compound 136],,> 70,
CCN(C)C=Nc1cc(C)c(Cc2ccccc2S(C)(=O)=NC)cc1C (stereo not shown) [Compound 137],,> 70,
CCN(C)C=Nc1cc(C)c(Cc2ccccc2S(C)(=O)=NCC2CC2)cc1C (stereo not shown) [Compound 138],,> 70,
CCN(C)C=Nc1cc(C)c(Nc2ccc(S(C)(=O)=NCC3CC3)cc2)cc1C (stereo not shown) [Compound 139],> 70,,inhibition of growth at 300 ppm (Septoria lycopersici): > 70%
CCN(C)C=Nc1cc(C)c(Oc2cccc(S(=N)(=O)C(F)(F)F)c2)cc1C (stereo not shown) [Compound 148],,> 70,
CCN(C)C=Nc1cc(C)c(Oc2cccc(S(=O)(=NC)C(F)(F)F)c2)cc1C (stereo not shown) [Compound 151],,> 70,
CCN(C)C=Nc1cc(C)c(Oc2ccccc2S(=O)(=NCC2CC2)C(F)(F)F)cc1Cl (stereo not shown) [Compound 152],,> 70,pest or weed control at 500 ppm (Phakopsora pachyrhizi): > 70%
